Laboratory results taken from ChEMBL document CHEMBL3430912, “GSK Tres Cantos Anti-Kinetoplastid Screening (TCAKS) Data”.

How the values were obtained:
Trypanosoma cruzi [1] = assay: (§1) GSK_TCAKS: pIC50 H2C9 Imaging: H9c2 Host Cardiomyocytes. […] Cells were then washed once with PBS before infection. T. cruzi trypomastigotes, collected at days 5 to 8 after infection from LLC-MK2 parasite infected cultures, were allowed to swim out for 4h at 37C from a centrifuged pellet (2,500 rpm/10 min/room temperature). Trypomastigotes were then collected and counted in a CASY Cell Counter. Trypomastigotes, in supplemented DMEM, were added to H9c2 cultures in a multiplicity of infection of 1 and incubated for 18 h. Cells were washed once with PBS before incubation of the infected H9c2 monolayer with trypsin (Life-Technologies) to detach cells from the flask. Cells were counted in a CASY Cell Counter using a 150 um capillary and their density set at 5 * 10^4 cells per mL in supplemented assay DMEM. Infected H9c2 were dispensed into 384-well poly-lysine coated assay plates at 50uL per well using a Multidrop Combi dispenser. After seeding them, the plates were incubated at 37C, 5% CO2 for 72h. Cultures were then fixed and stained by addition of 50 uL of a solution containing 8% formaldehyde and 4 uM DRAQ5 DNA dye (BioStatus, UK) per well. […] Five images were collected per well for reliable statistical analysis. Automated image analysis was performed with a script developed on Acapella High Content Imaging and Analysis Software (PerkinElmer). Output: Number of H9c2 Host Cardiomyocytes nuclei to determine drug-related cytotoxicity.; format: functional, organism-based, Rattus norvegicus; details: H9c2, 4 h
Trypanosoma cruzi [2] = assay: GSK_TCAKS: pIC50 Trypanosoma cruzi viability assay using beta-GAL activity. This assay was run at single shot at 5uM compound concentration per well. The biological reagents consisted of NIH-3T3 host cells and trypomastigotes parasitic cells; both cell types were set to a 3.3 * 10^5 cells/mL dilution in assay DMEM by means of a CASY cell counter device using a 60um capillary. 6 uL of the mixture were dispensed per well (about 1 * 10^3 host-cells and 1 * 10^3 parasites) with a Multidrop Combi dispenser. […] In all wells, the percentage of DMSO never exceeded 0.5%. Plates incubated for four days at 37C, 5% CO2. The substrate used for the assay fluorescence intensity (FLINT) readout was resorufin-beta-D-galactopiranoside (Sigma-Aldrich) at 5uM per well. It was diluted in PBS supplemented with the soft detergent Igepal (Fluka).; format: functional, organism-based, Mus musculus; details: Tulahuen, NIH3T3
[3] = test system: Trypanosoma brucei brucei; assay: GSK_TCAKS: pIC50 Trypanosoma brucei viability assay using fluorescence intensity. Assay plates (1536-well) were prepared by dispensing 25nL of compound solution per well using an Echo acoustic dispenser (Labcyte).; format: functional, organism-based; details: Lister 427, 2 h
Leishmania donovani [4] = assay: GSK_TCAKS: pIC50 Leishmania donovani viability assay using fluorescence intensity. Assay plates (1536-well) were prepared by adding 30nL per well of compound. For single shot assay, the final compound concentration was 5uM. […] Briefly, eGFP LdBOB axenic amastigotes were harvested, fixed and counted in a CASY cell counter (Roche-Applied Science). A final concentration of 1.5 * 10^5 cells per well were prepared in amastigote media containing 500 U/mL penicillin/streptomycin (Invitrogen) and 6uL was dispensed to each experimental well using a Multidrop Combi dispenser (Thermo Scientific). 6uL of assay media was dispensed to control columns used as reference for 100% compound response. Following incubation for 72 h at 37C, 5% CO2, 2 uL of resazurin was added to each well at a final concentration of 0.5 mM in phosphate buffered saline (PBS) with IGEPAL (Sigma-Aldrich), 0.05% (v/v).; format: functional, organism-based
Trypanosoma cruzi [5] = assay: as §1, with “Trypanosoma cruzi” for “H2C9”, “Infected Cells.” for “H9c2 Host Cardiomyocytes.”, “percentage” for “Number”, “infected cells per well as a second infection marker.” for “H9c2 Host Cardiomyocytes nuclei to determine drug-related cytotoxicity.”; format: functional, organism-based, Rattus norvegicus; details: H9c2, 4 h
Trypanosoma cruzi [6] = assay: as §1, with “Trypanosoma cruzi” for “H2C9”, “Amastigotes/Cell.” for “H9c2 Host Cardiomyocytes.”, “number” for “Number”, “amastigotes per cell as infection level measurement.” for “H9c2 Host Cardiomyocytes nuclei to determine drug-related cytotoxicity.”; format: functional, organism-based, Rattus norvegicus; details: H9c2, 4 h
Leishmania donovani [7] = assay: (§2) GSK_TCAKS: pIC50 Leishmania donovani Imaging: Amastigotes/Macrophages. Assay plates (384-well) were prepared by adding 250nL of compound to each well. For single shot assay, the final compound concentration was 5 uM. […] Automated image analysis was performed with a script developed on Acapella High Content Imaging and Analysis Software (PerkinElmer). Output: Average number of amastigotes per macrophage cell were reported for each well.; format: functional, organism-based, Homo sapiens; details: THP-1
[8] = test system: Trypanosoma brucei brucei; assay: GSK_TCAKS: pIC50 Trypanosoma brucei viability assay using luminiscence. Assay plates (1536-well) were prepared. T. brucei cultures were harvested and counted in a CASY cell counter. A parasite suspension was prepared at a final concentration of 5 * 10^4 cells/mL in complete HMI9 medium and 6uL was dispensed to all wells containing compounds using a Multidrop Combi dispenser. 6uL of HMI9 media with 0.4% DMSO were dispensed to control columns. Plates were incubated for 24 h at 37C, 5% CO2 then tempered for 10 min at room temperature. ATP content was quantified by adding 4 uL of CellTiter-Glo Reagent (Promega) according to the manufacturer's instructions. Luminescence was measured using a ViewLux.; format: functional, organism-based; details: Lister 427, CASY
Leishmania donovani [9] = assay: as §2, with “Infected Macrophages.” for “Amastigotes/Macrophages.”, “Percent” for “Average number”, “infected” for “amastigotes per”, “cells” for “cell”; format: functional, organism-based, Homo sapiens; details: THP-1
[10] = GSK_TCAKS: pIC50 HepG2 human cell line viability assay using luminiscence. […] Seeding density was checked to ensure that new mono-layers were not more than 50% confluent at the time of harvesting. Cell suspension was added to 500 mL of the same medium at a final density of 1.2 * 10^5 cells/mL. This cell suspension was dispensed (25 uL, 3000 cells per well) into 384-well clear-bottom plates using a Multidrop Combi dispenser. Prior to addition of the cell suspension, the screening compounds (250 nL) were pre-dispensed into the plates with an Echo liquid handler. Plates were incubated for 48 h at 37C, 5% CO2. After incubation, plates equilibrated at room temperature for 30 min before proceeding to develop the luminescent signal. The signal developer, CellTiter-Glo Reagent, was allowed to equilibrate at room temperature for 30 min and added to the plates (25uL per well) using a Multidrop Combi dispenser. Plates were left for 10 min at room temperature for stabilization and then read using a ViewLux.; format: toxicity, cell-based
[11] = molecular target: Sterol 14-alpha demethylase (Trypanosoma cruzi (strain CL Brener), UniProt Q7Z1V1); assay: GSK_TCAKS: pIC50 CYP51 from Trypanosoma cruzi.; format: functional
Chain of Sterol 14-alpha demethylase (Q7Z1V1 whole entry): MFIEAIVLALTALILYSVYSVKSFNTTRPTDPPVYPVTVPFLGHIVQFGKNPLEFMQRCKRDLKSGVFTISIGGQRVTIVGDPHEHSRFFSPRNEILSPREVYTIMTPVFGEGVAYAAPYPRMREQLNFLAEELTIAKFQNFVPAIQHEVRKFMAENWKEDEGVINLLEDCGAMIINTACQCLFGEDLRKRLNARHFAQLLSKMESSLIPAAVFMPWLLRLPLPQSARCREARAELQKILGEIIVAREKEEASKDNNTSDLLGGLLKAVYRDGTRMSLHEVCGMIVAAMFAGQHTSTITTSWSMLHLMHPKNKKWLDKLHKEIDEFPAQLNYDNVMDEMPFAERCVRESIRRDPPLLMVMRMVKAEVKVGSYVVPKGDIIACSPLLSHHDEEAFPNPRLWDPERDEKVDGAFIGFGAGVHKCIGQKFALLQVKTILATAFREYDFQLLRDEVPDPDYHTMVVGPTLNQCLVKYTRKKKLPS

Leishmania donovani [12] = assay: as §2, with “THP-1 Host Macrophages.” for “Amastigotes/Macrophages.”, “THP-1” for “Average number of amastigotes per macrophage”, “cell count” for “cell”; format: functional, organism-based, Homo sapiens
NIH3T3 = assay: GSK_TCAKS: pIC50 NIH 3T3 cell line viability assay using luminiscence. Tissue culture surface treated assay plates (1536-well) were used. […] The 100% cells survival control was determined exposing the host-cells to a 0.5% DMSO concentration, whereas the 100% toxicity control was achieved by seeding the cells in presence of Amphotericin B at 50uM. Plates were incubated for four days at 37C, 5% CO2. The assay readout was developed by addition of 5uL of CellTiter-Glo Reagent following the manufacturer's instructions. Luminiscence was measured using a ViewLux.; format: functional, cell-based; details: Mus musculus, NIH3T3, 96 h

SMILES | IC50 (Trypanosoma cruzi [1]) [µM] | IC50 (Trypanosoma cruzi [2]) [nM] | IC50 [3] [µM] | IC50 (Leishmania donovani [4]) [µM] | IC50 (Trypanosoma cruzi [5]) [nM] | IC50 (Trypanosoma cruzi [6]) [nM] | IC50 (Leishmania donovani [7]) [µM] | IC50 [8] [µM] | IC50 (Leishmania donovani [9]) [µM] | IC50 at 48 h [10] [µM] | IC50 [11] [nM] | IC50 (Leishmania donovani [12]) [µM] | IC50 (NIH3T3) [µM]
CS(=O)(=O)c1ccc(CC(=O)Nc2nc(-c3ccc(Cl)s3)cs2)cc1 | 15.8 | 398 | 10 | > 50.1 | 316 | 398 | > 50.1 | > 39.8 | > 50.1 | > 100 | > 100000 | 15.8 | > 50.1
O=C(NCCc1cccnc1)c1csc(-c2ccccc2)n1 | > 50.1 | 282 | 25.1 | > 50.1 | 501 | 398 | > 50.1 | > 39.8 | > 50.1 | > 100 | 63.1 | > 50.1 | 50.1
CC(=O)Nc1nc(-c2cc(C)ccc2C)c(C)s1 | > 50.1 | 200 | > 39.8 | > 50.1 | 200 | 158 | 31.6 | > 39.8 | > 50.1 | > 100 | > 100000 | > 50.1 | 25.1
O=c1[nH]c(C=Cc2cccc(OCCOc3ccccc3)c2)nc(O)c1[N+](=O)[O-] | > 50.1 | 794 | 10 | > 50.1 | 200 | 158 | > 50.1 | 10 | > 50.1 | > 100 | > 100000 | > 50.1 | > 50.1
Cn1nccc1-c1cc(OC(CN)c2ccccc2)cnc1-c1ccco1 (stereo not drawn) | > 50.1 | 398 | 12.6 | > 50.1 | 100 | 100 | 31.6 | 15.8 | > 50.1 | 50.1 | 63.1 | 15.8 | 20
CN(Cc1cc2ccccc2s1)c1ncc2c(N)nc(N)nc2n1 | 20 | 2000 | 31.6 | 31.6 | 3160 | 794 | 25.1 | 25.1 | 31.6 | 39.8 | > 100000 | 25.1 | 25.1
Clc1ccc(OCCN2CCCCC2c2cccnc2)c(Cl)c1 (stereo not drawn) | > 50.1 | 398 | 31.6 | 5.01 | 200 | 158 | 5.01 | > 39.8 | > 50.1 | 79.4 | 63.1 | > 50.1 | 25.1
O=C(NCCNc1noc(-c2ccc([N+](=O)[O-])cc2)n1)c1ccc(Cl)cc1 | > 50.1 | 2000 | 3.16 | > 50.1 | > 50100 | 1260 | > 50.1 | > 39.8 | > 50.1 | > 100 | > 100000 | 15.8 | > 50.1
CN(Cc1cccnc1)Cc1ccc(N2CCN(C(=O)C3(c4ccc(Cl)cc4)CC3)CC2)nc1 | > 50.1 | 501 | 31.6 | 31.6 | 1580 | 1260 | > 50.1 | 25.1 | > 50.1 | > 100 | 158 | 10 | 7.94
COc1ccc(S(=O)(=O)NC(C)C)cc1Nc1ncc(-c2cccc(F)c2)cn1 | > 50.1 | 631 | 20 | 6.31 | 398 | 316 | > 50.1 | > 39.8 | > 50.1 | > 100 | > 100000 | > 50.1 | 5.01
O=C(NCCc1ccccc1Cl)c1cccn1-c1cccnc1 | > 50.1 | 398 | 31.6 | 6.31 | 501 | 501 | > 50.1 | > 39.8 | > 50.1 | > 100 | 79.4 | > 50.1 | 31.6
COc1ccc(S(=O)(=O)Nc2ccccc2OC)cc1NC(=O)CCCc1c[nH]c2ccccc12 | > 50.1 | 1580 | 12.6 | 25.1 | 1260 | 1000 | > 50.1 | 31.6 | > 50.1 | > 100 | > 100000 | > 50.1 | > 50.1
Cc1nn(C2CCS(=O)(=O)C2)c(C)c1CN(C)C(=O)C=Cc1sc2ccccc2c1Cl (stereo not drawn) | > 50.1 | 631 | 10 | 12.6 | 501 | 316 | 12.6 | 25.1 | 39.8 | > 100 | 31.6 | 20 | > 50.1
COc1ccc2c(Cl)c(C(=O)N3CCC3)sc2c1Cl | > 50.1 | 447 | 20 | > 50.1 | 2510 | 794 | > 50.1 | > 39.8 | > 50.1 | > 100 | > 100000 | > 50.1 | > 50.1
Cc1cc(C)nc(N2CCC(N(Cc3cccnc3)C(=O)c3cccc(C#N)c3)CC2)n1 | > 50.1 | 316 | > 39.8 | 5.01 | 316 | 398 | > 50.1 | > 39.8 | > 50.1 | > 100 | 126 | > 50.1 | 7.94
CCN(CC)S(=O)(=O)c1ccc(C(=O)Nc2cc(C)nn2-c2nc(C)c(C)c(=O)[nH]2)cc1 | > 50.1 | 631 | 0.316 | 0.501 | 1580 | 316 | > 50.1 | 0.316 | > 50.1 | > 100 | > 100000 | 3.16 | > 50.1
